{
  "source": "patent US20170191058A1",
  "about": "“PERFORIN 2 DEFENSE AGAINST INVASIVE AND MULTIDRUG RESISTANT PATHOGENS” (priority 2012, published 2017)",
  "key": {"P-2 mRNA": {"system": "P-2 mRNA", "experiment": "P-2 mRNA expression in mEF by TAQMAN PCR after cytokine treatment", "assay_type": "cell-based, murine", "conditions": "added singly, 14 hours", "method": "(§1) Murine embryonic fibroblasts (FIG. 14A), a rectal cancer cell line (FIG. 14B), myoblast cell line (FIG. 14C), and an ovarian cell line (FIG. 14D) were treated for 14 hours with 100 U/ml interferon-α, interferon-β, and interferon-γ treated. LPS was treated at 1 ng/ml; IL-1α at 10 U/ml, IL-1β at 1 ng/ml, and TNFα at 20 ng/mL. A human embryonic kidney cell line (FIG. 14E) and cervical cancer cell line (FIG. 14F) were treated with human IFN-α at 150 U/ml, IFN-β and IFN-γ at 100 U/ml. The BV2 microglial cell line was stimulated with 100 U/ml of murine Interferon-γ for 14 hours to upregulate P-2 mRNA and protein. mEF treated with IFN-γ for 14 hours (mEF), or IFN-γ for 14 hours followed by 1 hour of treatment with […] MG-132 (mEF+MG132) (FIG. 14G). Human primary keratinocytes were analyzed for protein expression with indicated recombinant human IFN treatment (FIG. 14H). mEF were treated with E. coli or M. smegmatis. At indicated time points, cells were harvested and analyzed for P-2 mRNA and compared to uninfected controls by TAQMAN™ PCR. (FIG. 14I) mEF were either not stimulated, or stimulated for 14 hours with IFN-γ at 100 U/ml. After stimulation, mEF were infected with M. smegmatis and analyzed for colony forming units at indicated time points.\nRecombinant murine IL-1α, IL-1β, TNFα, IFN-γ, IFN-α, IFN-β recombinant human IFN-γ, IFN-β were purchased from preprotech. Recombant human IFN-α was purchased from R&D systems. Murine […] was supplemented at 10 U/mL where indicated. Murine IL-1β was supplemented at 1 ng/ml. Murine TNFα was supplemented at 20 ng/ml. Murine IFN-α, IFN-β and IFN-γ was supplemented with 100 U/ml. Human IFN-α was supplemented where indicated in at a concentration of 150 U/ml where indicated. Human IFN-β and IFN-γ was supplemented at a concentration of 100 U/ml. LPS was added at a concentration of 1 ng/ml.\nRNA was extracted from cells following RNeasy (Qiagen) instructions. One μg of RNA was converted to cDNA using QuantiTect Reverse Transcription kit (Qiagen) following supplier's protocol. qRT-PCR was performed using TAQMAN® Gene Expression Assays (Applied Biosystems) for murine Mpeg1 and GAPDH, with the later serving as a housekeeping control gene. For human tissues, human Mpeg1 and GapDH probes were utilized. All assays were performed on the Applied Biosystems 7300 PCR platform."}, "S. typhimurium": {"system": "S. typhimurium", "experiment": "Gentamycin protection assay: intracellular S. typhimurium in peritoneal macrophages (PEM)", "assay_type": "cell-based, Salmonella typhimurium", "conditions": "for additional effect on intracellular replication/killing when combined with P-2 knockdown: inhibitor plus P-2 siRNA knock down; for effect on intracellular killing of Salmonellae: single effector blocked, 1-5 h post-infection", "method": "(§2) Gentamicin protection assay: S. typhimurium strain LT2Z, Mycobacterium avium, Mycobacterium smegmatis (ATCC), methicllin resistant Staphylococcus aureus and K12 E. coli were grown from glycerol stocks at 37° C. with shaking for 16-18 hr in Luria broth (LB) (S. typhimurium, S. aureus, and E. coli) or Middlebrook 7H9 broth (Mycobacteria) prior to infection. For Salmonella, the culture was then diluted 1:33 in LB and grown for another 3 hours to induce invasive phenotype. Macrophages or microglial cells were plated (5×10^5 cells/well of a 12 well plate) and stimulated overnight with LPS (Ing/ml) and IFN-γ (100 U/ml). Cells were infected the next day at indicated MOI for 30 minutes (S. typhimurium,) or 1 hour (all other bacteria) in 37° C., 5% CO2 incubator. Cells were washed twice with PBS and fresh medium containing 50 μg/ml gentamicin was added. After 2 hours the concentration of gentamicin was lowered to 5 μg/ml. At the indicated timepoints after adding gentamicin, the cells were washed with PBS, lysed using 0.1% Triton-X in water, diluted and plated in triplicate on agar plates and CFU determined.\nThe current understanding of bactericidal responses in macrophages is that they are mediated by oxidative mechanisms, such as ROS and NO within the phagosome, and by phagosome-lysosome fusion. To assess the role of P-2 in comparison to ROS and NO in intracellular killing of bacteria, each of the bactericidal effectors was blocked individually or in combination with P-2, and intracellular bacterial survival in peritoneal macrophages (PEM) measured between 1 and 5 hours post-infection utilizing the gentamycin protection assay (FIGS. 1A-1C). Gentamycin is membrane impermeable and present only in the extracellular medium. Inhibition of ROS, NO or P-2 individually had different effects on different bacteria. Using S. typhimurium, ˜90% bacteria present intracellularly in PEM at 1 h were dead at 5 h in the absence of inhibitors (˜10% survival, FIG. 1 A). […] In other words without P-2 ROS and NO have little effect on killing of Salmonellae.\nHere we analyze the bactericidal efficiency of each effector pathway and their synergism. We blocked each effector individually and determined intracellular survival and replication or killing of intracellular S. typhimurium and M. smegmatis. These experiments were carried out with intestinal epithelial cells (CMT93) (not shown) and in IFN-γ activated PEM (FIG. 27e) with virtually identical results. First, we ascertained that IFN-γ activated and LPS stimulated PEM produced ROS and NO and that this production is not affected by P-2 siRNA knock down. We also ascertained that the ROS and NO inhibitors used were specific and active in blocking ROS or NO (not shown). PEM are able to kill about 90% of intracellular Salmonella in the first four hours after infection when all three effectors were active in scramble siRNA transfected cells (FIG. 27e, solid lines). […] M. smegmatis is more resistant to killing by bactericidal effectors within 4 hours. […] Blockade of ROS or NO without P-2 knock down had only limited, non-significant effects on bactericidal activity against Mycobacteria.\nIntracellular bactericidal activity was adapted from. In brief, bacteria were grown at 37° C. with shaking for 16-18 hours in Luria broth (LB) (S. typhimurium, S. aureus, and E. coli) or 24 hours in Middlebrook 7H9 broth (Mycobacteria) prior to infection. For S. typhimurium, E. coli, and S. aureus the culture was then diluted 1:33 in LB and grown for another 3 hours to allow the bacteria to enter log phase and for Salmonella to induce the invasive phenotype. Eukaryotic cells were transfected following Lonza's optimized protocol for the respective cells, and plated into 12-well plates post-transfection. […]"}, "[1]": {"system": "E. coli, S. typhimurium and M. smegmatis", "experiment": "Bacterial growth in medium with ROS/NO inhibitors, no PEM (OD 600)", "assay_type": "cell-based", "conditions": "10 mM, IMDM+10% FBS, 5 hours", "method": "E. coli, S. typhimurium and M. smegmatis were grown in IMDM+10% FBS in the presence or absence of NAC (10 mM) or L-NAME (10 mM) for 5 hours. Bacterial growth was measured by spectrophotometer at an OD of 600 nm at 1 and 4 hours after addition of inhibitors to the culture medium."}, "[2]": {"system": "E. coli, S. typhimurium, M. smegmatis", "experiment": "Gentamycin protection assay in PEM infected with E. coli, S. typhimurium or M. smegmatis (FIG. 1)", "assay_type": "cell-based", "conditions": "10 mM NAC, 10 mM L-NAME or pool of 3 siRNAs, CFU at 1 h and 5 h", "method": "The gentamycin protection assay was carried out as in FIGS. 2A-2F. 24 h after transfection with P-2 siRNA or scrambled siRNA. PEM were infected with (FIG. 1A) E. coli, (FIG. 1B) S. typhimurium, or (FIG. 1C) M. smegmatis. Inhibitors were added 1 h before infection and maintained throughout assay. Cells were lysed and CFU determined at 1 h and 5 h post-infection. Data shown are representative of 3 experiments with 2 replicates; asterisks denote significance (p<0.05) based on students t-test.\nas §2, with “Cells were infected the next day at indicated MOI for 30 minutes (S. typhimurium,) or 1 hour (all other bacteria) in 37° C., 5% CO2 incubator. Cells were washed twice with PBS and fresh medium containing 50 μg/ml gentamicin was added. After 2 hours the concentration of gentamicin was lowered to 5 μg/ml.” left out"}, "Salmonella": {"system": "Salmonella", "experiment": "Gentamycin protection assay: intracellular Salmonella in mEF", "assay_type": "cell-based, Salmonella typhimurium", "method": "Mouse rectal carcinoma CMT-93 was transiently transfected with a P-2 siRNA pool, or with P-2-RFP. Scramble siRNA or RFP were also transfected and analyzed to serve as controls for P-2 siRNA and P-2-RFP respectively. All transfections were performed 24 hours prior to infection. 14 hours prior to infection, cells were incubated with 100 U/ml of species specific IFN-γ. At indicated time points after infection, cells were lysed and plated for CFU analysis. (FIGS. 16A-16D) mEF were transfected with P-2siRNA and complemented with siRNA resistant P-2-RFP cDNA 24 hours prior to infection. 14 hours prior to infection, interferon-γ was added. mEF were infected with late log phase S. typhimurium. At indicated time points mEFs were lysed and analyzed for colony forming units. […]\nS. typhimurium strain LT2Z), Mycobacterium smegmatis, methicillin-resistant Staphylococcus aureus, and E. coli strain K12 were grown from glycerol stocks at 37° C. with shaking for 24 hours in Luria broth (S. typhimurium, S. aureus, and E. coli) or Middlebrook 7H9 broth (M. smegmatis). […] At indicated time points, cells were washed with PBS, lysed using 1% Igepal in ddH2O, diluted and plated in technical triplicate on LB agar plates (S. typhimurium, S. aureus, E. coli) or Middlebrook 7H11 plates (M. smegmatis) and CFU determined after sufficient colony growth."}, "P-2 protein": {"system": "P-2 protein", "experiment": "Western blot of P-2 protein in interferon-activated mEF", "assay_type": "cell-based, murine", "conditions": "IFN-γ 14 hours then 1 hour MG-132", "method": "as §1\nRabbit anti-Mpeg1 polyclonal antibody was obtained from Abcam and used for western blot analysis."}},
  "note": "“Also recorded” adds a separate entry of the source. Residues, ends and D or L forms follow the SMILES beside them. *: point of attachment. Cbz = O=C(OCc1ccccc1)*",
  "data": [
    {"molecule": "TNFα", "values": [
      {"measurement": "P-2 mRNA induction in mEF", "setting": "P-2 mRNA", "value": "do not induce P-2 mRNA"}
    ]},
    {"molecule": "IFNα", "values": [
      {"measurement": "P-2 mRNA induction in mEF", "setting": "P-2 mRNA", "value": "up-regulates P-2 mRNA"}
    ]},
    {"molecule": "CC(=O)N[C@@H](CS)C(=O)O", "note": "[NAC, N-Acetylcysteine]", "values": [
      {"measurement": "survival of Salmonellae at 5 h compared to 1 h levels", "setting": "S. typhimurium; inhibitor 10 mM, added 1 h before infection, ~10% survival without inhibitors", "value": "~80", "unit": "%"},
      {"measurement": "additional effect on intracellular replication/killing when combined with P-2 knockdown", "setting": "S. typhimurium", "value": "did not further increase intracellular replication; also recorded: no further effect"},
      {"measurement": "effect on intracellular killing of Salmonellae", "setting": "S. typhimurium", "value": "slows down the killing activity"},
      {"measurement": "effect on bacterial growth in the absence of PEM", "setting": "[1]", "value": "do not directly inhibit bacterial growth"},
      {"measurement": "intracellular killing", "setting": "[2]", "value": "Intracellular killing was inhibited"}
    ]},
    {"molecule": "COC(=O)[C@@H](N)CCCN=C(N)N[N+](=O)[O-].Cl", "note": "[L-NAME, N^G-nitro-L-arginine-methyl ester hydrochloride]", "values": [
      {"measurement": "additional effect on intracellular replication/killing when combined with P-2 knockdown", "setting": "S. typhimurium; hydrochloride", "value": "did not further increase intracellular replication"},
      {"measurement": "additional effect on intracellular replication/killing when combined with P-2 knockdown", "setting": "S. typhimurium; listed as NAME, hydrochloride", "value": "no further effect"},
      {"measurement": "effect on intracellular killing of Salmonellae", "setting": "S. typhimurium; hydrochloride", "value": "slows down the killing activity"},
      {"measurement": "effect on bacterial growth in the absence of PEM", "setting": "[1]", "value": "do not directly inhibit bacterial growth"},
      {"measurement": "intracellular killing", "setting": "[2]", "value": "Intracellular killing was inhibited"}
    ]},
    {"molecule": "Cn1cnc(N)c2ncnc1-2", "note": "[3-MA, 3-methyl-adenine]", "values": [
      {"measurement": "effect on intracellular Salmonella replication in mEF", "setting": "Salmonella", "value": "permits Salmonella replication; also recorded: allows replication of Salmonella"}
    ]},
    {"molecule": "CC(C)C[C@@H](C=O)NC(=O)[C@H](CC(C)C)NC(=O)[C@H](CC(C)C)NC(=O)OCc1ccccc1", "note": "[MG132] (Cbz-Leu-Leu-Leu-aldehyde)", "values": [
      {"measurement": "detection of P-2 protein by Western blot", "setting": "P-2 protein", "value": "P-2 protein is not detected by Western blot analysis of interferon-activated mEF unless the proteasome inhibitor MG132 is added"}
    ]},
    {"molecule": "IL-1α: recombinant murine IL-1α (protein, UniProt P01582 115-270, looked up) Interleukin-1 alpha: SAPYTYQSDLRYKLMKLVRQKFVMNDSLNQTIYQDVDKHYLSTTWLNDLQQEVKFDMYAYSSGGDDSKYPVTLKISDSQLFVSAQGEDQPVLLKELPETPKLITGSETDLIFFWKSINSKNYFTSAAYPELFIATKEQSRVHLARGLPSMTDFQIS", "values": [
      {"measurement": "P-2 mRNA induction in mEF", "setting": "P-2 mRNA", "value": "do not induce P-2 mRNA"}
    ]}
  ]
}
